Consider two molecules from patent US20170152226A1, “FUNCTIONALISED AND SUBSTITUTED INDOLES AS ANTI-CANCER AGENTS” (Novogen Ltd., priority 2014, published 2017).

What all share (assay type): cell-based
The test system of one experiment is SK-Mel-28. The experiment can be described thus: Anti-proliferative activity, cell-titre luminescent viability assay. Conditions: Homo sapiens, SK-MEL-28, 72 hours, read-out: IC50 Melanoma SK-Mel-28. In a few lines:
(§1)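 Cells were seeded at pre-determined densities, cultured 24 hours at 37° C/5% CO2, then exposed 72 hours to compound at 0.03, 0.3, 3 and 30 μM or at 0.1, 0.3, 1, 3, 10 and 30 μM. Viability was read by cell-titre luminescence after 30 min, normalized to untreated control, and IC50 or EC50 derived.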

In the next experiment the test system is CaCo2. Described as above. Conditions: Homo sapiens, read-out: IC50 Colorectal CaCo2. In a few lines: as §1
Another experiment concerns PC3. The experiment is described as above. The settings on record: Homo sapiens, read-out: IC50 Prostate PC3. In a few lines: as §1
For another experiment, the system named is A549. Described as above. The settings on record: Homo sapiens, read-out: IC50 Lung (NSLC) A549. In a few lines: as §1
Another experiment has as its system MDA-MB-231. The experiment is described as above. The settings on record: Homo sapiens, read-out: IC50 Breast MDA-MB-231. Summed up:
as §1

The next experiment concerns SK-N-SH. Described as above. Conditions: Homo sapiens, SK-N-SH, read-out: IC50 Neuroblastoma SK-N-SH. In a few lines:
as §1

For another experiment, the system named is DU145. The experiment is described as above. The settings on record: Homo sapiens, read-out: IC50 Prostate DU145. In a few lines: as §1
The test system of experiment [1] is Tpm3.1-containing actin filaments in SK-N-SH neuroblastoma cells. The experiment is described as follows: Microfilament disruption assay, γ9d staining. The settings on record: 0-40 μM, 24 hours post treatment. The method, then:
FIG. 2: Imaging and quantitation of actin filaments in SK-N-SH neuroblastoma cells treated with compound (A) 3504, (B) 3507 and (C) 3516. Cells were stained with γ9d (sheep polycolonal, 1:100) followed by 488-conjugated secondary (1:1000) and DAPI to visualize the Tpm3.1 containing filament bundles and the nucleus, respectively. Shown in the top panel is a representative grey scale immunofluorescent image from control (vehicle alone), 5 μM and 10 μM treated cells. […] The coloured lines indicate the detected actin filaments. Also shown is the quantitation of cell number, filament number/cell and filament number/cell area (μM^2). […]
(§2) The ability of compounds 3504, 3507 and 3516 to disrupt the total actin cytoskeleton (FIG. 1) and to specifically target Tpm3.1-containing actin filaments (FIG. 2) was assessed in vitro using the microfilament disruption assay.
(§3) Briefly, SK-N-SH neuroblastoma cells were seeded at 1800 cells/well in a 384 Perkin Elmer High Content Imaging “View” plate and left to plate down 24 hours prior to treatment. […] Images were then exported and changes in the organization and numbers of actin filaments within the cell were quantitated using a linear feature detection algorithm developed by the CSIRO (Vindin et al., 2014). […] It is these “ridge lines” that correspond to actin filament bundles and allow us to quantitate the number of filaments per cell.

Experiment [2] has as its system total actin cytoskeleton in SK-N-SH neuroblastoma cells. The experiment can be described thus: Microfilament disruption assay, phalloidin staining. The settings on record: 0-40 μM, 24 hours post treatment. The protocol: FIG. 1: Imaging and quantitation of actin filaments in SK-N-SH neuroblastoma cells treated with compound (A) 3504, (B) 3507 and (C) 3516. Cells were stained with 488-Atto-Phallodin and DAPI to visualize the actin filament bundles and the nucleus, respectively. Shown in the top panel is a representative grey scale immunofluorescent image from control (vehicle alone), 5 μM and 10 μM treated cells. […] The coloured lines indicate the detected actin filaments. Also shown is the quantitation of cell number, filament number/cell and filament number/cell area (μM^2). […]
as §2, §3

Like-named read-outs stand apart in the source and are kept apart here.

As to `Cc1c(C)n(CCCN2CCN(C)CC2)c2ccc(Cc3cccc(C(=O)N4CCN(CCc5cccc(F)c5)CC4)c3)cc12` [Compound 3504, (3-((2,3-dimethyl-1-(3-(4-methylpiperazin-1-yl)propyl)-1H-indol-5-yl)methyl)phenyl)(4-(3-fluorophenethyl)piperazin-1-yl)methanone], the 50% inhibitory concentration (IC50) in the experiment with SK-Mel-28 (0.1, 0.3, 1, 3, 10 and 30 μM, nonlinear regression sigmoidal dose-response (EC50)) is 1100 nM; in the experiment with CaCo2 (Caco-2, 72 h, 0.1, 0.3, 1, 3, 10 and 30 μM, nonlinear regression sigmoidal dose-response (EC50)) it was 1800 nM; in the experiment on PC3 (PC-3, 72 h, 0.1, 0.3, 1, 3, 10 and 30 μM, nonlinear regression sigmoidal dose-response (EC50)), 2000 nM; in the experiment with A549 (A549, 72 h, 0.1, 0.3, 1, 3, 10 and 30 μM, nonlinear regression sigmoidal dose-response (EC50)), 1600 nM; in the experiment with MDA-MB-231 (MDA-MB-231, 72 h, 0.1, 0.3, 1, 3, 10 and 30 μM, nonlinear regression sigmoidal dose-response (EC50)), 1500 nM; in the experiment on SK-N-SH (72 h, 0.1, 0.3, 1, 3, 10 and 30 μM, nonlinear regression sigmoidal dose-response (EC50)), 1500 nM. For the same molecule, the 50% inhibitory concentration (IC50) in the experiment with DU145 (DU-145, 72 h, 0.1, 0.3, 1, 3, 10 and 30 μM, nonlinear regression sigmoidal dose-response (EC50)) came out at 1400 nM. The “disruption of Tpm3.1-containing actin filaments” value in [1] is recorded as “in a dose-dependent manner”. The “disruption of the total actin cytoskeleton” value in experiment [2] is reported as “in a dose-dependent manner”.

Turning to `Cc1c(C)n(CCCN2CCN(C)CC2)c2ccc(Nc3cccc(C(=O)N4CCN(CCc5cccc(F)c5)CC4)c3)cc12` [Compound 3516, (3-((2,3-dimethyl-1-(3-(4-methylpiperazin-1-yl)propyl)-1H-indol-5-yl)amino)phenyl)(4-(3-fluorophenethyl)piperazin-1-yl)methanone], the IC50 in the experiment with SK-Mel-28 (0.03, 0.3, 3 and 30 μM, linear regression of semi-log plots) is 2600 nM; in the experiment with CaCo2 (Caco-2, 72 h, 0.03, 0.3, 3 and 30 μM, linear regression of semi-log plots), 2100 nM; in the experiment on PC3 (PC-3, 72 h, 0.03, 0.3, 3 and 30 μM, linear regression of semi-log plots), 3500 nM; in the experiment on A549 (A549, 72 h, 0.03, 0.3, 3 and 30 μM, linear regression of semi-log plots), 2200 nM; in the experiment with MDA-MB-231 (MDA-MB-231, 72 h, 0.03, 0.3, 3 and 30 μM, linear regression of semi-log plots) it was 1300 nM; in the experiment on SK-N-SH (72 h, 0.03, 0.3, 3 and 30 μM, linear regression of semi-log plots), 1400 nM. For the same molecule, the IC50 in the experiment on DU145 (DU-145, 72 h, 0.03, 0.3, 3 and 30 μM, linear regression of semi-log plots) stood at 3000 nM. Further, in experiment [1], the “disruption of Tpm3.1-containing actin filaments” value is “in a dose-dependent manner”. Further, the “disruption of the total actin cytoskeleton” value in [2] was “in a dose-dependent manner”.

In general, IC50 refers to the concentration needed to halve the response being measured.
